Experimental data reported in patent US20200171065A1, “METHOD FOR TREATING LIVER DISEASE WITH KINSENOSIDE” (HUAZHONG UNIVERSITY OF SCIENCE AND TECHNOLOGY, priority 2017, published 2020).
Like-named read-outs stand apart in the source and are kept apart here.

System: FVB/N mice with serine/threonine kinase (AKT) overexpressed in the liver (NAFL-NASH-liver fibrosis)
Details: for Diameter of hepatic portal vein / Diameter of inferior vena cava / Length of the spleen / Oblique diameter of right lobe of liver / Thickness of the left lobe of liver / Thickness of the spleen: type B ultrasound
[1] = Liver fibrosis stage, KD 30 mg/kg
[2] = high, medium and low dose groups

Description: The serine/threonine kinase (AKT) and transposase plasmids were injected into the liver of the mice by a transposition system through hydrodynamics. The serine/threonine kinase was specifically overexpressed in the liver, and the mice except the control group were modeled. One week later, nonalcoholic fatty liver (NAFL) was formed; two weeks later, steatohepatitis (NASH) was formed; and four weeks later, a primary hepatic fibrosis model was established. In the formation of NAFL-NASH-liver fibrosis, the therapeutic effect of KD was observed.

For `O=C1C[C@@H](O[C@@H]2O[C@H](CO)[C@@H](O)[C@H](O)[C@H]2O)CO1` [KD], the “liver histopathological damage (H&E staining)” value (30, 20 and 10 mg/kg KD) was “could reduce liver histopathological damage”, the “Diameter of hepatic portal vein” value [1] was 0.65 ± 0.07 mm and the “Diameter of inferior vena cava” value [1] was 1.15 ± 0.07 mm. For the same compound, the “Length of the spleen” value [1] was 5.40 ± 0.71 mm, the “Oblique diameter of right lobe of liver” value [1] was 8.35 ± 0.78 mm and the “Thickness of the left lobe of liver” value [1] was 3.65 ± 0.49 mm. The “Thickness of the spleen” value [1] was 1.50 ± 0.14 mm, the “Diameter of hepatic portal vein” value (NAFL stage, KD 30 mg/kg) was 0.75 ± 0.07 mm and the “Diameter of inferior vena cava” value (NAFL stage, KD 30 mg/kg) was 1.50 ± 0.14 mm. For the same compound, the “Length of the spleen” value (NAFL stage, KD 30 mg/kg) was 5.40 ± 0.99 mm, the “Oblique diameter of right lobe of liver” value (NAFL stage, KD 30 mg/kg) was 7.25 ± 0.21 mm and the “Thickness of the left lobe of liver” value (NAFL stage, KD 30 mg/kg) was 4.35 ± 1.20 mm. For the same compound, the “Thickness of the spleen” value (NAFL stage, KD 30 mg/kg) was 1.65 ± 0.07 mm, the IFN-γ (NASH, KD 10 mg/kg) was 36.71 ± 0.32^ΔΔ pg/mL and the IL-2 (NASH, KD 10 mg/kg) was 101.31 ± 9.79^##Δ pg/mL. The IL-10 (NASH, KD 10 mg/kg) was 66.84 ± 2.73 pg/mL, the IL-12 (NASH, KD 10 mg/kg) was 127.64 ± 2.71 pg/mL and the NO (NASH, KD 10 mg/kg) was 56.22 ± 5.32^ΔΔ μmol/L. For the same compound, the TNF-α (NASH, KD 10 mg/kg) was 4.10 ± 0.04 pg/mL, the IFN-γ (NASH, KD 20 mg/kg) was 33.86 ± 0.65 pg/mL and the IL-2 (NASH, KD 20 mg/kg) was 133.29 ± 4.57 pg/mL. The IL-10 (NASH, KD 20 mg/kg) was 84.12 ± 0.23^##ΔΔ pg/mL, the IL-12 (NASH, KD 20 mg/kg) was 123.05 ± 0.71 pg/mL and the NO (NASH, KD 20 mg/kg) was 51.38 ± 1.08^#ΔΔ μmol/L. For the same compound, the TNF-α (NASH, KD 20 mg/kg) was 3.03 ± 0.26^##ΔΔ pg/mL, the IFN-γ (NASH, KD 30 mg/kg) was 32.43 ± 0.98 pg/mL and the IL-2 (NASH, KD 30 mg/kg) was 169.13 ± 13.10^##Δ pg/mL. For the same compound, the IL-10 (NASH, KD 30 mg/kg) was 91.20 ± 0.56^##ΔΔ pg/mL, the IL-12 (NASH, KD 30 mg/kg) was 106.38 ± 1.18^##Δ pg/mL and the NO (NASH, KD 30 mg/kg) was 48.15 ± 1.86^##ΔΔ μmol/L. The TNF-α (NASH, KD 30 mg/kg) was 2.35 ± 0.10^##ΔΔ pg/mL, the “serum ALT and AST” value (during development of liver fibrosis) was “decreased after KD treatment” and the “expression of MMP-13 in the liver (qPCR)” value [2] was “promoted the expression of matrix metalloproteinase-13 (MMP-13)”. The “expression of α-SMA, Col I and TIMP-1 in the liver (qPCR)” value [2] was “could effectively inhibit the expression”, the “release of inflammatory response marker NO” value [2] was “inhibited the release of the inflammatory response marker NO” and the “secretion of IL-10 (Th2-type cells)” value [2] was “promoted the secretion of the inflammatory cytokine IL-10”. The “secretion of inflammatory cytokines IFN-γ, TNF-α and IL-2 (Th1)” value [2] was “reduced the secretion of the inflammatory cytokines IFN-γ, TNF-α and IL-2”, the “width of the inferior vena cava, left lobe thickness, right lobe obliquity and spleen thickness (ultrasound)” value (high, middle and low dose groups) was “can significantly reduce the width of the inferior vena cava, left lobe thickness, right lobe obliquity and spleen thickness” and the IFN-γ (liver fibrosis, KD 10 mg/kg) was 85.76 ± 8.25 pg/mL. For the same compound, the IL-2 (liver fibrosis, KD 10 mg/kg) was 101.73 ± 0.70^##ΔΔ pg/mL, the IL-10 (liver fibrosis, KD 10 mg/kg) was 128.28 ± 24.84 pg/mL and the IL-12 (liver fibrosis, KD 10 mg/kg) was 253.62 ± 7.20 pg/mL. The NO (liver fibrosis, KD 10 mg/kg) was 52.13 ± 1.40 µmol/L, the TNF-α (liver fibrosis, KD 10 mg/kg) was 13.46 ± 9.31^ΔΔ pg/mL and the IFN-γ (liver fibrosis, KD 20 mg/kg) was 57.19 ± 1.65^##ΔΔ pg/mL. For the same compound, the IL-2 (liver fibrosis, KD 20 mg/kg) was 104.72 ± 0.71^##ΔΔ pg/mL, the IL-10 (liver fibrosis, KD 20 mg/kg) was 206.66 ± 1.91^##ΔΔ pg/mL and the IL-12 (liver fibrosis, KD 20 mg/kg) was 174.77 ± 2.72 pg/mL.
